# Results: US10632171B2, “Melanocortin receptor-specific peptides” (Palatin Technologies, Inc., priority 2009, dated 2020)
# Read-outs that look alike come from different tables or passages of the source. Peptide text beside a SMILES is read from it.
# How the values were obtained:
# [1] = Induction of penile erection in male rats; assay type: in vivo, rat
# Procedure: The ability of peptides of the present invention to induce penile erection (PE) in male rats were evaluated with selected peptides. Male Sprague-Dawley rats weighing 250-300 g were kept on a 12 hour on/off light cycle with food and water ad libitum. All behavioral studies were performed between 9 a.m. and 4 p.m. […] Rats are observed for one hour, and the number of yawns, grooming bouts and PEs are recorded in 10-minute bins.
# hMC4-R = hMC4-R (Homo sapiens (Human), UniProt P32245); assay: Assay for agonist activity (cAMP accumulation in HEK-293 cells); assay type: cell-based; details: for Emax: HEK293; for functional classification at MC4-R: agonist = intrinsic activity 70% or higher, partial agonist 10-70%
# Chain of hMC4-R (P32245 whole entry): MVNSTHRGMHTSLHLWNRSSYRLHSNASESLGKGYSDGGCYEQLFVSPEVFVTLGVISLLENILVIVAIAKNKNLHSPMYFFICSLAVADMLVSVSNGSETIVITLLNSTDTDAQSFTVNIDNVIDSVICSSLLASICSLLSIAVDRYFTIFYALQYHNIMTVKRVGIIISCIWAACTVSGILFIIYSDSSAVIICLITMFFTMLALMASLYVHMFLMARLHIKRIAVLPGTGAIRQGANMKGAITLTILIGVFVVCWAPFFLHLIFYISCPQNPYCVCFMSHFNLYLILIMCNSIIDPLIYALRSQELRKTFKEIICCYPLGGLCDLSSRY
# Procedure: Accumulation of intracellular cAMP was examined as a measure of the ability of the peptides of the present invention to elicit a functional response in HEK-293 cells that express MC4-R. Confluent HEK-293 cells that express recombinant hMC4-R were detached from culture plates by incubation in enzyme-free cell dissociation buffer. Dispersed cells were suspended in Earle's Balanced Salt Solution containing 10 mM HEPES (pH 7.5), 1 mM MgCl2, 1 mM glutamine, 0.5% albumin and 0.3 mM 3-isobutyl-1-methyl-xanthine (IBMX), a phosphodiesterase inhibitor. […] Cells were exposed for 15 minutes at 37° C. to peptides of the present invention dissolved in DMSO (final DMSO concentration of 1%) at a concentration range of 0.05-5000 nM in a total assay volume of 200 μL. […] Data analysis was performed by nonlinear regression analysis with Graph-Pad Prism® software. The maximum efficacies of the test peptides of the present invention were compared to that achieved by the reference melanocortin agonist NDP-αMSH.
# [2] = Food intake and body weight change in rats; assay type: in vivo, rat; details: for food intake / rate of change in body weight: rat feeding study, 0.3 and 1 mg/kg; for decrease in food consumption compared to control: rats
# Procedure: Change in food intake and body weight was evaluated for selected peptides administered by intravenous (IV) or subcutaneous injection routes. Male Sprague-Dawley rats were obtained from Hilltop Lab Animals, Inc. (Scottsdale, Pa.) or other vendors. Animals were individually housed in conventional polystyrene hanging cages and maintained on a controlled 12 hour on/off light cycle. Water and pelleted food was provided ad libitum. The rats were dosed IV with vehicle or selected peptides (0.3 to 1.0 mg/kg), or dosed subcutaneously with vehicle or selected peptides (doses up to 30 mg/kg). […] The changes in body weight and food intake for the 48 hour and 72 hour periods after dosing can also be measured to determine reversal of changes in body weight and food intake effects back to baseline levels.
# hMC1-R = hMC1-R (Homo sapiens (Human), UniProt Q01726); assay: Functional assay for agonist activity at hMC1-R; assay type: cell-based; details: intrinsic activity
# Chain of hMC1-R (Q01726 whole entry): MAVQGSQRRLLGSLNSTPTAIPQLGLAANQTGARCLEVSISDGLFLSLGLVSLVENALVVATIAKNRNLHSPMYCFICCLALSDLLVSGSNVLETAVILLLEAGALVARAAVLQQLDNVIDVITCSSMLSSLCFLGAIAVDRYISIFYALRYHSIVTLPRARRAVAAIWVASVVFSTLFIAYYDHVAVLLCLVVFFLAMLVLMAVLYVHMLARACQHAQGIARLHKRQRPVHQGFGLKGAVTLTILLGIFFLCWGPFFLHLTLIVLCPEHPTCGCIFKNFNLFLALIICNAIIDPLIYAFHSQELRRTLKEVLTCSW
# [3] = NDP-α-MSH is 100%, read-out: intrinsic activity at MC4-R
# [4] = 1 mg/kg, 0-2, 0-4 and 0-20 hour periods
# [5] = intrinsic activity, read-out: hMC4-R Emax (%)
Emax (hMC4-R; [3]),functional classification at MC4-R (hMC4-R),Emax (hMC4-R; [5]),Emax (hMC1-R),Structure (SMILES),other results
91%,agonist,–,–,"CC(=O)N[C@@H](CCCNC(=N)N)C(=O)N[C@H]1CC(=O)NCCCC[C@@H](C(N)=O)NC(=O)[C@H](Cc2c[nH]c3ccccc23)NC(=O)[C@H](CCCNC(=N)N)NC(=O)[C@@H](Cc2ccccc2)NC(=O)[C@H](Cc2c[nH]cn2)NC1=O [Peptide No. 1, Ac-Arg-cyclo(Asp-His- D-Phe-Arg-Trp-Lys)- NH2]","observed spontaneous erections compared to vehicle ([1]; IV, 0.3 or 1 mg/kg): statistically significant increase; food intake [2]: reduce food intake; rate of change in body weight [2]: decrease the rate of change in body weight; decrease in food consumption compared to control ([2]; 0.3 mg/kg, 0-2, 0-4 and 0-20 hour periods): statistically significant; decrease in food consumption compared to control [2, 4]: statistically significant"
42%,partial agonist,–,–,"CC(=O)N[C@@H](CCCNC(=N)N)C(=O)N[C@H]1CC(=O)NCCCC[C@@H](C(N)=O)NC(=O)[C@H](Cc2c[nH]c3ccccc23)NC(=O)[C@H](CCCNC(=N)N)NC(=O)[C@@H](Cc2ccccc2)NC(=O)[C@H](C(C)C)NC1=O [Peptide No. 16, Ac-Arg-cyclo(Asp-Val- D-Phe-Arg-Trp-Lys)- NH2]","food intake [2]: reduce food intake; rate of change in body weight [2]: decrease the rate of change in body weight; decrease in food consumption compared to control ([2]; 0.3 mg/kg, 0-2 and 0-4 hour periods): statistically significant; decrease in food consumption compared to control [2, 4]: statistically significant"
–,–,99%,98%,"CC(=O)N[C@@H](CCCNC(=N)N)C(=O)N[C@H]1CCNC(=O)CCC[C@@H](C(N)=O)NC(=O)[C@H](Cc2c[nH]c3ccccc23)NC(=O)[C@H](CCCNC(=N)N)NC(=O)[C@@H](Cc2ccccc2)NC(=O)[C@H](CCC(N)=O)NC1=O [compound 159, Ac-Arg-cyclo(Dab-Gln- D-Phe-Arg-Trp-hGlu)- NH2]",–
101%,agonist,–,–,"CC(=O)N[C@@H](CCCNC(=N)N)C(=O)N[C@H]1CCCC(=O)NCC[C@@H](C(N)=O)NC(=O)[C@H](Cc2c[nH]c3ccccc23)NC(=O)[C@H](CCCNC(=N)N)NC(=O)[C@@H](Cc2ccccc2)NC(=O)[C@H](Cc2c[nH]cn2)NC1=O [compound 126, Ac-Arg-cyclo(hGlu-His- D-Phe-Arg-Trp-Dab)- NH2]",–
–,–,91%,85%,"CC(=O)N[C@@H](CCCNC(=N)N)C(=O)N[C@H]1CCC(=O)NCCC[C@@H](C(N)=O)NC(=O)[C@H](Cc2c[nH]c3ccccc23)NC(=O)[C@H](CCCNC(=N)N)NC(=O)[C@@H](Cc2ccccc2)NC(=O)[C@H](CC(N)=O)NC1=O [compound 161, Ac-Arg-cyclo/(Glu-Asn- D-Phe-Arg-Trp-Orn)- NH2]",–
98%,agonist,–,–,"CC(=O)N[C@@H](CCCNC(=N)N)C(=O)N[C@H]1CCCC(=O)NCC[C@@H](C(N)=O)NC(=O)[C@H](Cc2c[nH]c3ccccc23)NC(=O)[C@H](CCCNC(=N)N)NC(=O)[C@@H](Cc2ccccc2)NC(=O)[C@H](CCN)NC1=O [compound 127, Ac-Arg-cyclo(hGlu-Dab- D-Phe-Arg-Trp-Dab)- NH2]",–
–,–,89%,85%,"CC(=O)N[C@H](CCCNC(=N)N)C(=O)N[C@H]1CCCNC(=O)CC[C@@H](C(N)=O)NC(=O)[C@H](Cc2c[nH]c3ccccc23)NC(=O)[C@H](CCCNC(=N)N)NC(=O)[C@@H](Cc2ccccc2)NC(=O)[C@H](CCC(N)=O)NC1=O [compound 152, Ac-D-Arg-cyclo(Orn- Gln-D-Phe-Arg-Trp- Glu)-NH2]",–
–,–,82%,89%,"CC(=O)N[C@@H](CCCNC(=N)N)C(=O)N[C@H]1CCCCNC(=O)C[C@@H](C(N)=O)NC(=O)[C@H](Cc2ccc3ccccc3c2)NC(=O)[C@H](CCCNC(=N)N)NC(=O)[C@@H](Cc2ccccc2)NC(=O)[C@H](CC(N)=O)NC1=O [compound 162, Ac-Arg-cyclo(Lys-Asn- D-Phe-Arg-Nal 2-Asp)- NH2] (HELM PEPTIDE1{[ac].R.K.N.[dF].R.[O=C([C@H](Cc1ccc2ccccc2c1)N[*:1])[*:2]].D.[am]}$PEPTIDE1,PEPTIDE1,3:R3-8:R3$$$V2.0)",–
–,–,–,87%,"CC(=O)N[C@@H](CCCNC(=N)N)C(=O)N[C@H]1CCCNC(=O)CC[C@@H](C(N)=O)NC(=O)[C@H](Cc2c[nH]c3ccccc23)NC(=O)[C@H](CCCNC(=N)N)NC(=O)[C@@H](Cc2ccccc2)NC(=O)[C@H](CC(N)=O)NC1=O [compound 154, Ac-Arg-cyclo(Orn-Asn- D-Phe-Arg-Trp-Glu)- NH2]",–
96%,agonist,–,–,"CC(=O)N[C@@H](CCCNC(=N)N)C(=O)N[C@H]1CCNC(=O)CCC[C@@H](C(N)=O)NC(=O)[C@H](Cc2c[nH]c3ccccc23)NC(=O)[C@H](CCCNC(=N)N)NC(=O)[C@@H](Cc2ccccc2)NC(=O)[C@H](CCN)NC1=O [compound 129, Ac-Arg-cyclo(Dab-Dab- D-Phe-Arg-Trp-hGlu)- NH2]",–
–,–,–,89%,"CC(=O)N[C@@H](CCCNC(=N)N)C(=O)N[C@H]1CCCNC(=O)CC[C@@H](C(N)=O)NC(=O)[C@H](Cc2c[nH]c3ccccc23)NC(=O)[C@H](CCCNC(=N)N)NC(=O)[C@@H](Cc2ccccc2)NC(=O)[C@H](CCC(N)=O)NC1=O [compound 150, Ac-Arg-cyclo(Orn-Gln- D-Phe-Arg-Trp-Glu)- NH2]",–
95%,agonist,–,–,"CC(=O)N[C@@H](CCCNC(=N)N)C(=O)N[C@H]1CCNC(=O)CCC[C@@H](C(N)=O)NC(=O)[C@H](Cc2c[nH]c3ccccc23)NC(=O)[C@H](CCCNC(=N)N)NC(=O)[C@@H](Cc2ccccc2)NC(=O)[C@H](Cc2c[nH]cn2)NC1=O [compound 128, Ac-Arg-cyclo(Dab-His- D-Phe-Arg-Trp-hGlu)- NH2]",–
–,–,98%,95%,"CC(=O)N[C@@H](CCCNC(=N)N)C(=O)N[C@H]1CCCC(=O)NCC[C@@H](C(N)=O)NC(=O)[C@H](Cc2c[nH]c3ccccc23)NC(=O)[C@H](CCCNC(=N)N)NC(=O)[C@@H](Cc2ccccc2)NC(=O)[C@H](CC(N)=O)NC1=O [compound 160, Ac-Arg-cyclo(hGlu-Asn- D-Phe-Arg-Trp-Dab)- NH2] (HELM PEPTIDE1{[ac].R.[O=C([C@H](CCCC(=O)[*:3])N[*:1])[*:2]].N.[dF].R.W.[Dab].[am]}$PEPTIDE1,PEPTIDE1,3:R3-8:R3$$$V2.0)",–
–,–,–,81%,"CC(=O)N[C@H](CCCNC(=N)N)C(=O)N[C@H]1CCCNC(=O)CC[C@@H](C(N)=O)NC(=O)[C@H](Cc2c[nH]c3ccccc23)NC(=O)[C@H](CCCNC(=N)N)NC(=O)[C@@H](Cc2ccccc2)NC(=O)[C@H](CC(N)=O)NC1=O [compound 156, Ac-D-Arg-cyclo(Orn- Asn-D-Phe-Arg-Trp- Glu)-NH2]",–
–,–,89%,88%,"CC(=O)N[C@H](CCCNC(=N)N)C(=O)N[C@H]1CC(=O)NCCCC[C@@H](C(N)=O)NC(=O)[C@H](Cc2c[nH]c3ccccc23)NC(=O)[C@H](CCCNC(=N)N)NC(=O)[C@@H](Cc2ccccc2)NC(=O)[C@H](CCC(N)=O)NC1=O [compound 71, Ac-D-Arg-cyclo(Asp- Gln-D-Phe-Arg-Trp- Lys)-NH2]",–
–,–,97%,91%,"CC(=O)N[C@@H](CCCNC(=N)N)C(=O)N[C@H]1CCCCNC(=O)C[C@@H](C(N)=O)NC(=O)[C@H](Cc2c[nH]c3ccccc23)NC(=O)[C@H](CCCNC(=N)N)NC(=O)[C@@H](Cc2ccccc2)NC(=O)[C@H](CC(N)=O)NC1=O [compound 155, Ac-Arg-cyclo(Lys-Asn- D-Phe-Arg-Trp-Asp)- NH2] (HELM PEPTIDE1{[ac].R.K.N.[dF].R.W.D.[am]}$PEPTIDE1,PEPTIDE1,3:R3-8:R3$$$V2.0)",–
98%,agonist,–,–,"CC(=O)N[C@@H](CCCNC(=N)N)C(=O)N[C@H]1CC(=O)NCCCC[C@@H](C(N)=O)NC(=O)[C@H](Cc2c[nH]c3ccccc23)NC(=O)[C@H](CCCNC(=N)N)NC(=O)[C@@H](Cc2ccccc2)NC(=O)[C@H](CCC(N)=O)NC1=O [Peptide No. 32, Ac-Arg-cyclo(Asp-Gln- D-Phe-Arg-Trp-Lys)- NH2]","observed spontaneous erections ([1]; subcutaneous, 1, 3 or 10 mg/kg): increase in observed spontaneous erections"
